Entries after “also recorded” stand apart in the source; their conditions may differ.
Key:
[1] = Screening of additives as formulation stabilizers in combination with a mixture of antimicrobial glycolipids in water based formulations (turbidity, qualitative overview)
Procedure: As to identify formulation stabilizer a screening was conducted in which additives typically used in food, cosmetic or medical applications were combined with a mixture of antimicrobial glycolipids in a water based formulation. A rather high concentration of 1000 mg/l for the formulation enhancing agents was used as to not miss potential effects whereas the mixture of antimicrobial glycolipids was applied in typical use concentrations, i.e. 5, 10 and 25 μg/ml.
Portions of about 50 mL each for two beverages. “Gerolsteiner Orangenlimonade” (turbid orange lemonade, de-gassed; cloudy beverage) and “REWE Apfelsaft” (clear apple juice, sterile filtered; clear beverage) as well as for 10 mM citrate buffer is water (pH 3.0), were mixed each with aliquots of a mixture of antimicrobial glycolipids and the respective additives as to establish for each individually screened additive three combinations of concentrations (1000 μg/ml (with few exceptions as listed below) additive with 5, 10 and 25 μg/ml mixture of antimicrobial glycolipids, respectively); three controls with neither adding a mixture of antimicrobial glycolipids nor additive were run in parallel.
The necessary aliquots of a mixture of antimicrobial glycolipids were transferred from an aqueous stock solution containing 1 mg/ml mixture of antimicrobial glycolipids into the nine test solutions prepared for each additive.
The necessary aliquots of additives were transferred directly into the 50 mL portions.
For measurement of the turbidity the turbidity infrared device AL250T-IR from […]® was used. It was measured at three time points: day 0, 3, 7. All test samples were stored and handled at room temperature.

[2] = Influence of the additives on the MIC of a mixture of antimicrobial glycolipids (qualitative); format: cell-based; conditions: additive 1 mg/ml
From the text: In addition, the influence of the additives on the MIC of a mixture of antimicrobial glycolipids is described qualitatively.

[3] = Visual control of compatibility (turbidity, particles, precipitate) of beverages containing mixture of antimicrobial glycolipids with or without formulation stabilizer
Procedure: All experiments done and reported in duplicate.
Portions of about 50 mL each for the two beverages, “Gerolstetner Orangenlimonade” (turbid orange lemonade, de-gassed; cloudy beverage) and “REWE Apfelsaft” (clear apple juice, sterile filtered; clear beverage), were mixed with aliquots of a mixture of antimicrobial glycolipids and alpha-cyclodextrin as to establish the depicted nine combinations of concentrations (4-2 to 4-4 and 4-6 to 4-11, respectively); two control solutions with neither adding a mixture of antimicrobial glycolipids nor alpha-cyclodextrin were run in parallel (4-1 and 4-5, respectively).
However, for the concentration of 10 μg/ml of mixture of antimicrobial glycolipids three combination with alpha-cyclodextrin, 25 (6-1, 6-2, 6-9, 6-10, 6-17, 6-18), 75 (6-3, 6-4, 6-11, 6-12, 6-19, 6-20) and 100 μg/ml (6-5, 6-6, 6-13, 6-14, 6-21, 6-22) and for the concentration of 25 μg/ml of mixture of antimicrobial glycolipids only 100 μg/ml alpha-cyclodextrin (6-7, 6-8, 6-15, 6-16, 6-23, 6-24) was used all with two test points, respectively.
2×50 mL portion of the four solutions in the Erlenmeyer flasks were poured into clear and sterile polystyrol conical tubes and sealed for investigation of stability and compatibility of such beverages at three different temperatures (6/20/40° C.) each, resulting in four tubes per temperature and beverage. Such 24 tubes were stored for seven days and observed at day 0, 3 and 7 by measurement of turbidity as well as by optical inspection. A control solution without adding any components was run in parallel.
Portions of about 50 mL each for the three beverages, “Gerolsteiner Orangenlimonade” (orange lemonade, de-gassed, cloudy beverage), “Kastell Zitronensprudel” (citrus lemonade, sterile filtered, clear beverage), and “REWE Apfelsaft” (clear apple juice, sterile filtered, clear beverage), were mixed with aliquots of a mixture of antimicrobial glycolipids as to establish the nine test solutions; three control solutions without adding a mixture of antimicrobial glycolipids were ran in parallel: […]

[4] = Comparison of alpha-cyclodextrin with Polysorbate 60: practicability in application in beverages and reliability in use; conditions: compared with polysorbates
From the text: The preferred formulation stabilizers polysorbates and cyclodextrins have been further investigated towards their practicability in application in beverages as well as their reliability in use.

[5] = additive 1 mg/ml, independent of glycolipid mixture

polyoxyethylene-(20)-sorbitane monolaurate [Polysorbate 20]
Effect of additive itself on water based product [1, 5]: Not compatible with apple juice.

O=C(O)CN(CCN(CC(=O)O)CC(=O)O)CC(=O)O [EDTA]
Effect on MIC [2]: Impr.

polyoxyethylene-(20)-sorbitane monostearate [Polysorbate 60]
Effect of additive itself on water based product [1, 5]: Not compatible with apple juice.

OC[C@H]1O[C@@H]2O[C@H]3[C@H](O)[C@@H](O)[C@@H](O[C@H]4[C@H](O)[C@@H](O)[C@@H](O[C@H]5[C@H](O)[C@@H](O)[C@@H](O[C@H]6[C@H](O)[C@@H](O)[C@@H](O[C@H]7[C@H](O)[C@@H](O)[C@@H](O[C@H]8[C@H](O)[C@@H](O)[C@@H](O[C@H]9[C@H](O)[C@@H](O)[C@@H](O[C@H]1[C@H](O)[C@H]2O)O[C@@H]9CO)O[C@@H]8CO)O[C@@H]7CO)O[C@@H]6CO)O[C@@H]5CO)O[C@@H]4CO)O[C@@H]3CO [gamma cyclodextrin]
beneficial effects as formulation stabilizer for antimicrobial glycolipids [3]: less pronounced beneficial effects

OC[C@H]1O[C@@H]2O[C@H]3[C@H](O)[C@@H](O)[C@@H](O[C@H]4[C@H](O)[C@@H](O)[C@@H](O[C@H]5[C@H](O)[C@@H](O)[C@@H](O[C@H]6[C@H](O)[C@@H](O)[C@@H](O[C@H]7[C@H](O)[C@@H](O)[C@@H](O[C@H]1[C@H](O)[C@H]2O)O[C@@H]7CO)O[C@@H]6CO)O[C@@H]5CO)O[C@@H]4CO)O[C@@H]3CO [alpha-cyclodextrin]
alpha-cyclodextrin concentration avoiding lack of compatibility ([3]; 10 μg/ml mixture of antimicrobial glycolipids in apple juice at 4° C.): 75 µg/mL
alpha-cyclodextrin concentration needed to avoid lack of compatibility ([3]; 10 μg/ml mixture of antimicrobial glycolipids in apple juice at 40° C.): 100 µg/mL
duration of improvement of compatibility ([3]; alpha-cyclodextrin with 10 μg/ml mixture of antimicrobial glycolipids, apple juice): > 28 days
overall rating as broadly applicable and reliable formulation stabilizer [4]: superior

Sorbitan monostearate
Effect of additive itself on water based product ([1]; additive 0.1 mg/ml): Weakly soluble

polyoxyethylene-(20)-sorbitane monooleate [Polysorbate 80]
Effect of additive itself on water based product [1, 5]: Increase of turbidity; also recorded: Not compatible with apple juice

— patent US10638757B2, “Formulation systems for antimicrobial glycolipids” (IMD Natural Solutions GmbH, priority 2016, dated 2020)
